# Assay results from ChEMBL document CHEMBL1201862, “PubChem BioAssay data set” (2004).
# Active and inactive are the calls of the source.
# Assays:
# [1] = THP-1 cell cytotoxicity, dose response, cytotoxicity control for Vif-APOBEC3G degradation inhibitor project, THP-1 cells (AID 1117359); type: functional; conditions: Human immunodeficiency virus 1, THP-1
# [2] = inhibitors of Vif binding to APOBEC3G peptide, primary screen, biochemical, TR-FRET, GST-Vif 1-94, biotin-A3G peptide, dose response retest (AID 1117319); type: functional;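 also: TR-FRET signal of purified GST-Vif binding a biotinylated A3G peptide; inhibitors lower the FRET signal by blocking Vif and A3G binding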
# [3] = target: T1, Endoribonuclease toxin MazF (Escherichia coli K-12, UniProt P0AE70); assay: fluorescent RNA oligo signal without MazF, dose response, counter-screen for MazEF activator project, biochemical, fluorescence, single-stranded RNase substrate (AID 588502); type: functional
# T1 sequence (P0AE70 whole entry): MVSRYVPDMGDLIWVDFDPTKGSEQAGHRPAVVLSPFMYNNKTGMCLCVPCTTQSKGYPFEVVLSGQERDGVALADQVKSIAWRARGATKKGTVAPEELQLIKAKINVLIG
# [4] = target: T1, Endoribonuclease toxin MazF; assay: MazF toxin RNase activators, dose response, biochemical, fluorescence, single-stranded RNA substrate, uHTS hits (AID 588481); type: functional
# Estrogen receptor = target: T2, Estrogen receptor (Homo sapiens, UniProt P03372);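 also: potency for inhibiting coactivator peptide recruitment to the receptor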
# T2 sequence (P03372 whole entry): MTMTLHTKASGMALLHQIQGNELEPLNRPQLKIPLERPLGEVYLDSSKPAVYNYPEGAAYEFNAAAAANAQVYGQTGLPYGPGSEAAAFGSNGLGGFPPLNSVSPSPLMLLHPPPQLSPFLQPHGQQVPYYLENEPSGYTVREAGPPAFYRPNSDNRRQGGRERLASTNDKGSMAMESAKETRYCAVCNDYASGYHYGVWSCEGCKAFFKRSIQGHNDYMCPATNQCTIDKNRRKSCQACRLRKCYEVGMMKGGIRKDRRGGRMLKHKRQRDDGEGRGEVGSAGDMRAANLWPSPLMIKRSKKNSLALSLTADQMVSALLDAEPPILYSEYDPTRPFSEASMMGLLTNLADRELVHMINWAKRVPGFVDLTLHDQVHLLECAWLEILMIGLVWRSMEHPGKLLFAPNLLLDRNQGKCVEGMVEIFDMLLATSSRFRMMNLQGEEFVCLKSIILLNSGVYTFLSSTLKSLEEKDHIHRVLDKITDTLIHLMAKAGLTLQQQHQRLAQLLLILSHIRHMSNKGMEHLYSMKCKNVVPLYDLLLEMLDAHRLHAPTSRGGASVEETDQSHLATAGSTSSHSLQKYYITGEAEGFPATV
# [5] = target: T3, Corticotropin-releasing factor receptor 2/Corticotropin-releasing factor-binding protein (Homo sapiens, UniProt P24387+Q13324); assay: Dose Response confirmation of uHTS hits for small molecule antagonists of the CRF-binding protein and CRF-R2 receptor complex.; type: functional; conditions: read-out: IC50_Mean
# T3 sequence (Q13324 whole entry): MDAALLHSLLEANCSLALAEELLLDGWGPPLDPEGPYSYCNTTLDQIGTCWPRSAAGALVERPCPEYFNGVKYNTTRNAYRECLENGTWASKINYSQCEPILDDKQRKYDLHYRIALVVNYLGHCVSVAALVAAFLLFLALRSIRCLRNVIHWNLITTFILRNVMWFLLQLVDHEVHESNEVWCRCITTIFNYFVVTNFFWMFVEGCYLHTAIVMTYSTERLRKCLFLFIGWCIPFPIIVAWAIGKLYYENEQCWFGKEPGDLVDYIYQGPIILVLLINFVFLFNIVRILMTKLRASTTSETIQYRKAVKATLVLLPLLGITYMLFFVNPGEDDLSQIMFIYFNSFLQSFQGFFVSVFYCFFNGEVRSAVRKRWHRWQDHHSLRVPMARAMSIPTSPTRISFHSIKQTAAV
# T3 sequence (P24387 whole entry): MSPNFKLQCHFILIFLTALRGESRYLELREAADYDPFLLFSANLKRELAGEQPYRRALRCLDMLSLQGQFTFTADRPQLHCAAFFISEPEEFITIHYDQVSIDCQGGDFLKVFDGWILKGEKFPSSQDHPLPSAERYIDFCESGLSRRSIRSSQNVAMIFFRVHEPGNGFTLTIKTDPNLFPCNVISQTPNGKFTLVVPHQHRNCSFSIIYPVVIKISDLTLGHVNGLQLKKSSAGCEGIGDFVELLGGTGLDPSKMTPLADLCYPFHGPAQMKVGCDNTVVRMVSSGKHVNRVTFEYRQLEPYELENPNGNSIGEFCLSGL
# [6] = target: T3, Corticotropin-releasing factor receptor 2/Corticotropin-releasing factor-binding protein; assay: activators of CRF receptor 2 with binding protein – uHTS hits, confirmation (AID 602473); type: functional; conditions: read-out: EC50_Mean
# [7] = target: Voltage-dependent T-type calcium channel subunit alpha-1H (Homo sapiens, UniProt O95180); type: functional;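 also: channel activity triggered by adding a high calcium stimulation buffer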
# Aminopeptidase N = target: T4, Aminopeptidase N (Plasmodium falciparum FcB1/Columbia, UniProt O96935); assay: P. falciparum M1AAP inhibitors, biochemical, fluorogenic H-Leu-NHMec substrate, 1536-well (AID 1445); parameters: species or system Plasmodium falciparum 3D7, 3D7
# T4 sequence (O96935 whole entry): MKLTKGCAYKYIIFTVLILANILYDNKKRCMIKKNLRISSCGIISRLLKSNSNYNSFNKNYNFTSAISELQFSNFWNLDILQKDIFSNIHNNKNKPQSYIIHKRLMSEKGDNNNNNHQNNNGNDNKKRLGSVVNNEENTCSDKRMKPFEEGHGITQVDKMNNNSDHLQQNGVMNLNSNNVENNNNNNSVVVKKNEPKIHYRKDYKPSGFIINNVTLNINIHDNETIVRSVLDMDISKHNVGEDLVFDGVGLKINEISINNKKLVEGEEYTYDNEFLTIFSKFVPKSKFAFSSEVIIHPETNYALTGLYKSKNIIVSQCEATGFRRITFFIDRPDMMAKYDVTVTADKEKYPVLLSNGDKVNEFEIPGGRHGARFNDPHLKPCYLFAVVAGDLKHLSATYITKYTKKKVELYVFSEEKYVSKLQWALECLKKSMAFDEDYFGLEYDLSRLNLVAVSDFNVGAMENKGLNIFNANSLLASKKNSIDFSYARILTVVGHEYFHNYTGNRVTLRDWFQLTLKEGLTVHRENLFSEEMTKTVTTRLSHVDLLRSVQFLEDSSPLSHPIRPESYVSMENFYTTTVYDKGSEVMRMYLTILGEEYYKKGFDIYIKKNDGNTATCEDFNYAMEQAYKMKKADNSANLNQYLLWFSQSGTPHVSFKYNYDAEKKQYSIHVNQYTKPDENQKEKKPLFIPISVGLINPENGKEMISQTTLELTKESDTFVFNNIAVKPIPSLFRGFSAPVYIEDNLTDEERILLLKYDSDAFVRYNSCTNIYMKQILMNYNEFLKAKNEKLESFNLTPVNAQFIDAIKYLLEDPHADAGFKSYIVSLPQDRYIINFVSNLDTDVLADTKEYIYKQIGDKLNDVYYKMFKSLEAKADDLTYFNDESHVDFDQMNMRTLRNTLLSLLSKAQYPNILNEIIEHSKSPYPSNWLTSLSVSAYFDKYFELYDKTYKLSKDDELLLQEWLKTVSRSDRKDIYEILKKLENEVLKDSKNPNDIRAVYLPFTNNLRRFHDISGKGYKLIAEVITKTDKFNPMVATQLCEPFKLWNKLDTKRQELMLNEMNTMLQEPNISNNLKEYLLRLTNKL
# [8] = microbe, parasite or virus in culture; type: functional; conditions: Mycobacterium tuberculosis
# [9] = A cytotoxicity screen of small molecule inhibitors of the PhoP region in Salmonella typhi identified in the primary screen. [Related pubchem assays: 1850, 1864, 1985 ]; type: functional
# [10] = target: T5, Heat shock factor protein 1 (Mus musculus, UniProt P38532); assay: inhibition of MG132-induced HSE-luciferase signal, confirmation, cell-based, NIH3T3, luminescence, dose retest (AID 2382); type: functional;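 also: NIH3T3 fibroblasts with HSF1-driven luciferase reporter stressed by proteasome inhibitor MG132; luminescence from HSF1-driven luciferase expression after 8 hours of MG132 stress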
# T5 sequence (P38532 whole entry): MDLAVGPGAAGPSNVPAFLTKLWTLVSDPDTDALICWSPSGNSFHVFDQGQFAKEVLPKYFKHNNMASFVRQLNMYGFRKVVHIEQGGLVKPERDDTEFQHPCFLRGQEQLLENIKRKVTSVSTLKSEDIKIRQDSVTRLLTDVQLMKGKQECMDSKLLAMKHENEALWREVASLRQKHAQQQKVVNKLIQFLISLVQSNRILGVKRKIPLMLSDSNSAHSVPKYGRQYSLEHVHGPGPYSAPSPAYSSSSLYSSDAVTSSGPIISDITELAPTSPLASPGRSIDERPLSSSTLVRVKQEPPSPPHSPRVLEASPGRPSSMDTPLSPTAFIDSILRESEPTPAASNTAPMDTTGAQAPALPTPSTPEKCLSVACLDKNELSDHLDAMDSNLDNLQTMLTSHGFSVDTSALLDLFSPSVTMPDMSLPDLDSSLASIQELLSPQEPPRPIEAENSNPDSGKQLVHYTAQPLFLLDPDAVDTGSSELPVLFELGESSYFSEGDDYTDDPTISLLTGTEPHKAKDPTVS
# cells = type: functional
# [11] = THP-1 cell cytotoxicity, dose response, cytotoxicity control for non-replicating M. tuberculosis project (AID 489025); type: functional
# [12] = cytotoxicity toward NIH3T3 fibroblasts, dose response, counter-screen, cell-based, ATP luminescence, mouse fibroblasts (AID 2010); type: functional;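 also: cells exposed to compound for about 90 hours before reading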
# [13] = HepG2 cell cytotoxicity, dose response, cytotoxicity control for non-replicating M. tuberculosis project (AID 489018); type: functional; conditions: Mycobacterium tuberculosis
# [14] = inhibitors of intracellular T. cruzi replication, confirmation, NIH3T3 host cells, beta-gal luminescence (AID 2044); type: functional, cell-based;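 also: intracellular parasites grown in NIH/3T3 mouse fibroblasts as host cells; luminescent beta-galactosidase reporter signal from transgenic T. cruzi replicating inside host cells; inhibitors lower the luminescence signal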
# Cytochrome P450 2D6 = Cytochrome P450 2D6 (Homo sapiens, UniProt P10635);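 also: CYP2D6 member of a cytochrome P450 panel assay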
# [15] = cytotoxicity in HPDE-C7 cells, cell-based, fluorescence, HTS (AID 430); type: functional; conditions: Homo sapiens
# [16] = cytotoxicity in KRAS-transformed pancreatic duct cells, primary screen, cell-based, fluorescence, HTS (AID 431); type: functional; conditions: Homo sapiens;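 also: cell line used: HPDE-C7K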
# [17] = target: Glyceraldehyde-3-phosphate dehydrogenase (Homo sapiens, UniProt P04406)
# [18] = HeLa 4N DNA content increase, dose response, cell-based, IC50 (AID 1117351); type: functional
# [19] = HeLa 2N DNA content increase, dose response, cell-based, IC50 (AID 1117349); type: functional
# Sequence of Voltage-dependent T-type calcium channel subunit alpha-1H (O95180 whole entry): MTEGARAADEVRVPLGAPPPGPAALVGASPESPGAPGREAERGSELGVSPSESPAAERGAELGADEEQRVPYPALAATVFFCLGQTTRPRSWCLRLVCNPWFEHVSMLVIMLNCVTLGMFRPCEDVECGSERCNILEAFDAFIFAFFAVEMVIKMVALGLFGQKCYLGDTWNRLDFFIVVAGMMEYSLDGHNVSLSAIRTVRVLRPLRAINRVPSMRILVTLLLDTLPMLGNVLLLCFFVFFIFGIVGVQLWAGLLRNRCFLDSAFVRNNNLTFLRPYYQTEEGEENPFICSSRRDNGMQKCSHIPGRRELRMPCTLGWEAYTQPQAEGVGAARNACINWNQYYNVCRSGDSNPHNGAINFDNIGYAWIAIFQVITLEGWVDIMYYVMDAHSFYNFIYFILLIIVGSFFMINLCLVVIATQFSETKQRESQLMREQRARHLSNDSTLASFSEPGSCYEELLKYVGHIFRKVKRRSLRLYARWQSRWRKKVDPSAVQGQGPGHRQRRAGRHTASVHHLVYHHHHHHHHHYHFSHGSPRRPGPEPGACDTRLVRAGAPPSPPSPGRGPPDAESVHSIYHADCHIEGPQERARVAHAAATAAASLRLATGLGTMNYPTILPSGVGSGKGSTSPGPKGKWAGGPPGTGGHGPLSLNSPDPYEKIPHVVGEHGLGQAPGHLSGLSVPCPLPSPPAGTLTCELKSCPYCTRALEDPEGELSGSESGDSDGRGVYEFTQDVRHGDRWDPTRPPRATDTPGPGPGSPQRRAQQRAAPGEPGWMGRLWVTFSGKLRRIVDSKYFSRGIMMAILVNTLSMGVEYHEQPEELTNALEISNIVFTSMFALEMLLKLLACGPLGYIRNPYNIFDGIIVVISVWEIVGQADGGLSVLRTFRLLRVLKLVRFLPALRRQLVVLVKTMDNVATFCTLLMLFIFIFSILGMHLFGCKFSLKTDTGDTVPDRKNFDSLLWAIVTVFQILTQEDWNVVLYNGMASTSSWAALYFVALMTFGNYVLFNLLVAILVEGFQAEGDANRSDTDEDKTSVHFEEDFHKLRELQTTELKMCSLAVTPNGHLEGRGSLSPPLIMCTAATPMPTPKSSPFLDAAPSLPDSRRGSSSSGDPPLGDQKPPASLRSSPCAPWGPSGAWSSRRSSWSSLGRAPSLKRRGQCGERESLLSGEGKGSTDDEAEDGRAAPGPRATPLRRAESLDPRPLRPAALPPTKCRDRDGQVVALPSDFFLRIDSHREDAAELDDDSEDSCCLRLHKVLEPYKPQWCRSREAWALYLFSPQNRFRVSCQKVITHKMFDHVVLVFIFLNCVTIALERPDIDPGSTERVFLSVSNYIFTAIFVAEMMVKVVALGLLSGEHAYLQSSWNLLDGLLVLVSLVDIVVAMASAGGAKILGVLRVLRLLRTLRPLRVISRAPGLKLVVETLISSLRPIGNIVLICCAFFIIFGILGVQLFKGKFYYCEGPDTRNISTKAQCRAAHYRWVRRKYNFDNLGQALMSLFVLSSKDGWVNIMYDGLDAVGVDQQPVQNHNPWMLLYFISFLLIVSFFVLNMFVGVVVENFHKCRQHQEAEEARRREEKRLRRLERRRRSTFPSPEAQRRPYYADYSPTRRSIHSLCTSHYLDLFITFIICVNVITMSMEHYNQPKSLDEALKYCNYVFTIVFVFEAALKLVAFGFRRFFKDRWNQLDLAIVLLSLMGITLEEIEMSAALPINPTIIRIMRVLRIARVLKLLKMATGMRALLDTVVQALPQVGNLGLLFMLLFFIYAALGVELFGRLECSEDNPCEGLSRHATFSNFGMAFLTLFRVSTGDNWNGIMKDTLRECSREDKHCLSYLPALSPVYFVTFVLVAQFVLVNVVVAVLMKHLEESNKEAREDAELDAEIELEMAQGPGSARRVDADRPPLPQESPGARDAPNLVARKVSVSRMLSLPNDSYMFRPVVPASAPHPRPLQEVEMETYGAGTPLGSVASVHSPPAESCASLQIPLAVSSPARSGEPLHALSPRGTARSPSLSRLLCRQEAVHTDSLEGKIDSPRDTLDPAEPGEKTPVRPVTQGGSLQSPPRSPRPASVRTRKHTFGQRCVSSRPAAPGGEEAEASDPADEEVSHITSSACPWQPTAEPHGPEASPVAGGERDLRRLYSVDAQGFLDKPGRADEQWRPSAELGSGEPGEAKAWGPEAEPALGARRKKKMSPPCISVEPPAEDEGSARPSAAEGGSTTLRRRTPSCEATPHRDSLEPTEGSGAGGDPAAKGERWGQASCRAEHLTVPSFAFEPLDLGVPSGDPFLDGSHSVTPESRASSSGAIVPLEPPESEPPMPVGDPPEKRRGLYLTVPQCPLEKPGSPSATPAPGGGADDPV
# Sequence of Glyceraldehyde-3-phosphate dehydrogenase (P04406 whole entry): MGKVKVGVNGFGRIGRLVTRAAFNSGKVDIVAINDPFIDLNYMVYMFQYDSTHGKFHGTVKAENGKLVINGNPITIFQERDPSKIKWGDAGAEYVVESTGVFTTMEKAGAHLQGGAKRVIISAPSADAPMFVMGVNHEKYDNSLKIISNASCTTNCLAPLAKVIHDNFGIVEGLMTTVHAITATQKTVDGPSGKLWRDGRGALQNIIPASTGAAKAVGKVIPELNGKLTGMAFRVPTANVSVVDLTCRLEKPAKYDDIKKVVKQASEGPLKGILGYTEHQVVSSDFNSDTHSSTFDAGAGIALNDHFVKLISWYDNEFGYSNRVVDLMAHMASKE
# Sequence of Cytochrome P450 2D6 (P10635 whole entry): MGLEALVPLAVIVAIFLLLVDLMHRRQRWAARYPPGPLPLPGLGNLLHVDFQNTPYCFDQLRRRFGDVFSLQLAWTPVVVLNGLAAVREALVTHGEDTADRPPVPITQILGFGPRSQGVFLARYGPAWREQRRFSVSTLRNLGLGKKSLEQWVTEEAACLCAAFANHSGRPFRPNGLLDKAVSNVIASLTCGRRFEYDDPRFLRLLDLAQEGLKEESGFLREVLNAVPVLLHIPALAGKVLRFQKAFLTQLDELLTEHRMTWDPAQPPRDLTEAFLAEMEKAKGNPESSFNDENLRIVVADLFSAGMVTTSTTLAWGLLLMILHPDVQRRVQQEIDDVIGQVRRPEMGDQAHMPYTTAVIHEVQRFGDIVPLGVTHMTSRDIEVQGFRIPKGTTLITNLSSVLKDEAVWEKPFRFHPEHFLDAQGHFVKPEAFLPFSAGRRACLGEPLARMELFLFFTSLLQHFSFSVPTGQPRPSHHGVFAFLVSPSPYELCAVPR
structure (smiles),measurement,setting,value
Cc1oc(C)c2c(=O)ccc3c(c12)OC(N)=C(C#N)C3c1ccccc1 (centres undefined),CC50,[1],> 40 µM (active)
same,IC50,[2],> 52.5 µM (active)
same,EC50,[3],> 99 µM (inactive)
same,EC50,[4],> 99 µM (inactive)
O=C(Cc1cn2ccsc2n1)OCc1nc2ccccc2s1,IC50,Estrogen receptor,6.98 µM (active)
CC(C)(C)n1nnnc1C(c1ccc(Cl)cc1)N(Cc1cccnc1)Cc1ccco1 (centres undefined),IC50,[5],> 47.1 µM (inactive)
same,EC50,[6],> 53 µM (inactive)
same,EC50,[7],3.31 µM (active)
CCNS(=O)(=O)c1ccc(CCC(=O)NCc2ccc(C)cc2)cc1,IC50,Aminopeptidase N,21.8 µM (active)
Cc1cc2nc(C3CCN(CC4COc5ccccc5O4)CC3)[nH]c2cc1C (centres undefined),CC50,[8],30.9 µM (active)
same,EC50,[7],4.9 µM (active)
CCC(C)(C)NC(=O)COc1ccc(C(=O)c2ccccc2)cc1,EC50,[9],> 50 µM (active)
CS(=O)(=O)c1cnc2c(-c3ccsc3)cnn2c1N,EC50,[9],> 50 µM (active)
O=C(Cn1ccc([N+](=O)[O-])n1)N1CCCc2ccccc21,IC50,[2],> 100 µM (active)
COC(=O)COc1ccc2c(c1C)O/C(=C\c1ccco1)C2=O,EC50,[10],> 195 µM (not active)
same,IC50,[2],> 100 µM (active)
CC(=O)Nc1ccc2nc(C)cc(O)c2c1,IC50,Estrogen receptor,21 µM (active)
NCCNC(=O)Cc1cccc(NC(=O)Cc2ccc(Nc3ncnc4c3ncn4[C@@H]3O[C@H](CO)[C@@H](O)[C@H]3O)cc2)c1,IC50,Aminopeptidase N,53.7 µM (active)
COC(=O)c1sc(NC(=O)c2ccc([N+](=O)[O-])o2)c(C#N)c1C,IC50,cells,6.19 µM (active)
same,CC50,[11],18.8 µM (active)
same,EC50,[12],> 60 µM (not active)
same,CC50,[13],> 20 µM (active)
same,EC50,[14],0.255 µM (active)
Cc1nc2c(C(=O)NCc3ccc4c(c3)OCO4)cnn2c(O)c1Cc1ccccc1F,AC50,Cytochrome P450 2D6,25.1 µM (inconclusive)
same,EC50,[7],7.38 µM (active)
same,EC50,[15],9.68 µM (active)
same,EC50,[16],11.6 µM (active)
NC(=O)C1(N2CCCCC2)CCN(c2nc(-c3ccc(Br)cc3)cs2)CC1,EC50,[12],> 60 µM (inconclusive)
same,IC50,Estrogen receptor,37.8 µM (not active)
same,EC50,[14],1.78 µM (active)
Cc1c(Br)cc(C(=O)NCc2ccco2)c(C)c1C,IC50,Estrogen receptor,> 50 µM (not active)
Cc1cc(C)c([C@@H]2C[C@H]3CN(C4CCCC4)C(=O)[C@]34CCCN24)c(-n2cccn2)c1,EC50,[9],> 50 µM (active)
NCCc1c(C(=O)O)[nH]c2ccc(S(N)(=O)=O)cc12,IC50,[17],> 100 µM (not active)
CC1(C)OC(=O)C(=Cc2ccc(I)o2)C(=O)O1,IC50,[17],> 100 µM (not active)
COc1cc(/C=N/NC(=O)c2cccnc2)ccc1OCC(=O)Nc1ccc(C)cc1,IC50,Aminopeptidase N,47.8 µM (active)
C=CC(=O)Nc1cc2c(Nc3ccc(F)c(Cl)c3)ncnc2cc1OCCCN1CCOCC1 [CANERTINIB],IC50,[18],> 10 µM (inactive)
same,IC50,[19],8.87 µM (inactive)
Cc1cc(O)c2ccccc2c1O [VITAMIN K3H2],IC50,[18],> 10 µM (inactive)
same,IC50,[19],> 10 µM (inactive)
